Drawing on article PMC9286623, this text covers ring closure, isolated yield for one compound.

This data set is described as follows: head-to-tail macrolactamisation of side-chain-protected linear peptides (crude from 2-ClTrt resin, TFE cleavage); DEPBT (2-2.5 equiv), NEt3 (10-12 equiv), 24 h; AcOH quench, prep HPLC. The settings on record: from CC[C@H](C)[C@H](NC(=O)[C@@H]1CCCN1C(=O)[C@H](CCCCNC(=O)OC(C)(C)C)NC(=O)[C@@H](N)CSC(c1ccccc1)(c1ccccc1)c1ccccc1)C(=O)N1CCC[C@H]1C(=O)N[C@H](C(=O)N[C@@H](Cc1cn(C(=O)OC(C)(C)C)c2ccccc12)C(=O)O)[C@@H](C)OC(C)(C)C; 21-membered ring; MeCN with <1-10% DMSO (3i: 5% DMF in MeCN); 2.0 mM; 25.0 °C.

For `CC[C@H](C)[C@@H]1NC(=O)[C@@H]2CCCN2C(=O)[C@H](CCCCNC(=O)OC(C)(C)C)NC(=O)[C@H](CSC(c2ccccc2)(c2ccccc2)c2ccccc2)NC(=O)[C@H](Cc2cn(C(=O)OC(C)(C)C)c3ccccc23)NC(=O)[C@H]([C@@H](C)OC(C)(C)C)NC(=O)[C@@H]2CCCN2C1=O` [H-Cys(Trt)-Lys(Boc)-Pro-Ile-Pro-Thr(tBu)-Trp(Boc)-OH], the ring closure, isolated yield came to 0%.
